Measurements published in ChEMBL document CHEMBL1132123, “The synthesis and biological activity of a series of 2,4-diaminopyrido[2,3-d]pyrimidine based antifolates as antineoplastic and antiarthritic agents” (Bioorg Med Chem Lett, 1999).
Values belong to the molecule of their own block, whether it stands above or below them.

Columns and labels:
[1] = Vmax/Km value was determined
Rattus norvegicus [2] = experiment: Compound evaluated for inhibition of rat paw swelling after ip administration at 0.125 mg/kg in acute phase; type: functional; conditions: route intraperitoneal
Rattus norvegicus [3] = experiment: Compound evaluated for inhibition of rat paw swelling after ip administration at 0.06 mg/kg and expressed as net swelling in mL of displaced water in acute phase; type: functional; conditions: route intraperitoneal
Rattus norvegicus [4] = experiment: Compound evaluated for inhibition of rat paw swelling after ip administration at 0.125 mg/kg in delayed phase; type: functional; conditions: route intraperitoneal
Rattus norvegicus [5] = experiment: Compound evaluated for inhibition of rat paw swelling after ip administration at 0.06 mg/kg in acute phase; type: functional; conditions: route intraperitoneal
Rattus norvegicus [6] = experiment: Compound evaluated for inhibition of rat paw swelling after ip administration at 0.125 mg/kg and expressed as net swelling in mL of displaced water in delayed phase; type: functional; conditions: route intraperitoneal
[7] = biological target: T1, Trifunctional purine biosynthetic protein adenosine-3 (Mus musculus, UniProt Q64737); experiment: Inhibitory activity against murine glycinamide ribonucleotide formyltransferase (GARFT) enzyme
T1 sequence (Q64737 whole entry): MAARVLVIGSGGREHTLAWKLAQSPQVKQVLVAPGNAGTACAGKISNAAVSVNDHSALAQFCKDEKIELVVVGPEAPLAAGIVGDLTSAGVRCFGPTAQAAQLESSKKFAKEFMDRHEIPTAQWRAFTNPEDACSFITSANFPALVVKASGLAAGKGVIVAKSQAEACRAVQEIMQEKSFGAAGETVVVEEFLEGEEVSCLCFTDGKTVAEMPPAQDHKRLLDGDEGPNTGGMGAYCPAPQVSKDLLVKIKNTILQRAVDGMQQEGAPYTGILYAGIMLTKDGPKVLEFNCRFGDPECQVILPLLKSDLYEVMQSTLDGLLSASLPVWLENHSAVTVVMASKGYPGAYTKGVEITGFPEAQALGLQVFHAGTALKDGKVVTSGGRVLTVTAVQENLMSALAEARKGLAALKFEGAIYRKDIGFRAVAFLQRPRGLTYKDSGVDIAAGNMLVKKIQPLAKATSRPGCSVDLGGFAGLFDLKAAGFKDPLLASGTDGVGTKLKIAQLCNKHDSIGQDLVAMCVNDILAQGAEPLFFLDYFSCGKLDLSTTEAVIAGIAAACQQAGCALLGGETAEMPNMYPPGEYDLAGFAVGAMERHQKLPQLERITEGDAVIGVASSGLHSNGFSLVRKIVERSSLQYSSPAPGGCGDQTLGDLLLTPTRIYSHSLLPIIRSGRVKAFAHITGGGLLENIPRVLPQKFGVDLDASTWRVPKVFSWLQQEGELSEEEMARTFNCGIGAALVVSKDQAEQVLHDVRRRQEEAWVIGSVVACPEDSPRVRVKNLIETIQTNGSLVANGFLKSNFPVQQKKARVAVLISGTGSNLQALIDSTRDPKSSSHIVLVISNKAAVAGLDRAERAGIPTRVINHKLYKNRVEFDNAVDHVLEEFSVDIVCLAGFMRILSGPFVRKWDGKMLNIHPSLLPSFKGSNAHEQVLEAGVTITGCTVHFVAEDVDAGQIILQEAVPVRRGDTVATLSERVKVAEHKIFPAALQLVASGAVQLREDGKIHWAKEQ

Dihydrofolate reductase = biological target: T2, Dihydrofolate reductase (Homo sapiens, UniProt P00374); experiment: Inhibitory activity against recombinant human dihydrofolate reductase (DHFR)
T2 sequence (P00374 whole entry): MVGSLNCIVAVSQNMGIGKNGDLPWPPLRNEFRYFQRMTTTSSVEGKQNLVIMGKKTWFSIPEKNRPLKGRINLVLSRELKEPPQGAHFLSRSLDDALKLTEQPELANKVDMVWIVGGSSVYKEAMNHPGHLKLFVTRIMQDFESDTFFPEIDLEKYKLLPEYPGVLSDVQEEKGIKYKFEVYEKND

Thymidylate synthase [8] = biological target: T3, Thymidylate synthase (Homo sapiens, UniProt P04818); experiment: Inhibitory activity against recombinant human Thymidylate synthase
T3 sequence (P04818 whole entry): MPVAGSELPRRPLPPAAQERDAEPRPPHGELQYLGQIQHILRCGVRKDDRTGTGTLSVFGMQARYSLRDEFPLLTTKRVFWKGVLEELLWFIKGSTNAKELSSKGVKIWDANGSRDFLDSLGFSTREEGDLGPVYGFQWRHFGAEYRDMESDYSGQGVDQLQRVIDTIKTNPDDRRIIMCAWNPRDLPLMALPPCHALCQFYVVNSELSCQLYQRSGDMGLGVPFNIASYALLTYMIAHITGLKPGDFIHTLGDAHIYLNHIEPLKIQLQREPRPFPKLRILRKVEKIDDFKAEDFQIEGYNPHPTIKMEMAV

Rattus norvegicus [9] = experiment: Compound evaluated for inhibition of rat paw swelling after ip administration at 0.06 mg/kg and expressed as net swelling in mL of displaced water in delayed phase; type: functional; conditions: route intraperitoneal
Rattus norvegicus [10] = experiment: Compound evaluated for inhibition of rat paw swelling after ip administration at 0.125 mg/kg and expressed as net swelling in mL of displaced water in acute phase; type: functional; conditions: route intraperitoneal
Rattus norvegicus [11] = experiment: Compound evaluated for inhibition of rat paw swelling after ip administration at 0.06 mg/kg in delayed phase; type: functional; conditions: route intraperitoneal
Thymidylate synthase [12] = biological target: T3, Thymidylate synthase; experiment: Inhibitory activity against recombinant human Thymidylate synthase enzyme
Rattus norvegicus [13] = experiment: Compound evaluated for inhibition of rat paw swelling after ip administration at 0.30 mg/kg in delayed phase; type: functional; conditions: route intraperitoneal
Rattus norvegicus [14] = experiment: Compound evaluated for inhibition of rat paw swelling after ip administration at 0.30 mg/kg and expressed as net swelling in mL of displaced water in delayed phase; type: functional; conditions: dose 0.3 mg/kg; route intraperitoneal
[15] = substrate: Nc1nc(O)c2c(n1)NCC(CCc1ccc(C(=O)NC(CCC(=O)O)C(=O)O)cc1)C2; experiment: (§1) Maximum rate of metabolism by hog liver folyl-poly-glutamate synthetase (FPGS) was determined; conditions: Sus scrofa
[16] = substrate: C[C@](CCC(=O)O)(NC(=O)c1ccc(CCC2CNc3nc(N)nc(N)c3C2)s1)C(=O)O; experiment: as §1; conditions: Sus scrofa
[17] = substrate: C[C@](CCC(=O)O)(NC(=O)c1ccc(CCC2CNc3nc(N)nc(N)c3C2)cc1)C(=O)O; experiment: as §1; conditions: Sus scrofa
[18] = substrate: C[C@](CCC(=O)O)(NC(=O)c1ccc(CCC2CNc3nc(N)nc(N)c3C2)o1)C(=O)O; experiment: as §1; conditions: Sus scrofa
[19] = substrate: Nc1nc(O)c2c(n1)NCC(CCc1ccc(C(=O)NC(CCC(=O)O)C(=O)O)cc1)C2; experiment: (§2) Michaelis-Menten constant for hog liver folyl-poly-glutamate synthetase (FPGS); conditions: Sus scrofa
[20] = substrate: C[C@](CCC(=O)O)(NC(=O)c1ccc(CCC2CNc3nc(N)nc(N)c3C2)s1)C(=O)O; experiment: as §2; conditions: Sus scrofa
[21] = substrate: C[C@](CCC(=O)O)(NC(=O)c1ccc(CCC2CNc3nc(N)nc(N)c3C2)cc1)C(=O)O; experiment: as §2; conditions: Sus scrofa
[22] = substrate: C[C@](CCC(=O)O)(NC(=O)c1ccc(CCC2CNc3nc(N)nc(N)c3C2)o1)C(=O)O; experiment: as §2; conditions: Sus scrofa

Vmax / Km [1]: 60
Molecule: Nc1nc(O)c2c(n1)NCC(CCc1ccc(C(=O)NC(CCC(=O)O)C(=O)O)cc1)C2 (configuration not stated)

Molecule: C[C@](CCC(=O)O)(NC(=O)c1ccc(CCC2CNc3nc(N)nc(N)c3C2)cc1)C(=O)O (some centres not stated)
inhibition in vivo at 0.125 mg/kg (Rattus norvegicus [2]): 35%
Net Swelling (Rattus norvegicus [3]): 0.82
inhibition in vivo at 0.125 mg/kg (Rattus norvegicus [4]): 14%
inhibition in vivo at 0.06 mg/kg (Rattus norvegicus [5]): 0%
Net Swelling (Rattus norvegicus [6]): 0.12
Ki [7]: 56000 nM
Ki (Dihydrofolate reductase): 0.29 nM
Ki (Thymidylate synthase [8]): > 5000 nM
Net Swelling (Rattus norvegicus [9]): 0.15
Net Swelling (Rattus norvegicus [10]): 0.55
Vmax / Km [1]: 40
inhibition in vivo at 0.06 mg/kg (Rattus norvegicus [11]): 0%

Molecule: C[C@](CCC(=O)O)(NC(=O)c1ccc(CCC2CNc3nc(N)nc(N)c3C2)o1)C(=O)O (some centres not stated)
Ki (Thymidylate synthase [12]): > 5000 nM
Ki [7]: 710 nM
Ki (Dihydrofolate reductase): 9.87 nM
Vmax / Km [1]: 9.2

Molecule: C[C@]12CCC(=O)C=C1CCC1[C@@H]2[C@@H](O)C[C@@]2(C)[C@H]1CC[C@]2(O)C(=O)CO (single isomer, unassigned) [HYDROCORTISONE]
inhibition in vivo at 0.3 mg/kg (Rattus norvegicus [13]): 36%
Net Swelling (Rattus norvegicus [14]): 0.09

Vmax / Km [1]: 4.3
Molecule: CN(Cc1cnc2nc(N)nc(N)c2n1)c1ccc(C(=O)N[C@@H](CCC(=O)O)C(=O)O)cc1

Ki (Thymidylate synthase [12]): > 5000 nM
Ki [7]: 9200 nM
Ki (Dihydrofolate reductase): 0.69 nM
Vmax / Km [1]: 98
Molecule: C[C@](CCC(=O)O)(NC(=O)c1ccc(CCC2CNc3nc(N)nc(N)c3C2)s1)C(=O)O (some centres not stated)

B1: Folylpolyglutamate synthase, mitochondrial (Homo sapiens), Q05932 (protein)
chain: MSRARSHLRAALFLAAASARGITTQVAARRGLSAWPVPQEPSMEYQDAVRMLNTLQTNAGYLEQVKRQRGDPQTQLEAMELYLARSGLQVEDLDRLNIIHVTGTKGKGSTCAFTECILRSYGLKTGFFSSPHLVQVRERIRINGQPISPELFTKYFWRLYHRLEETKDGSCVSMPPYFRFLTLMAFHVFLQEKVDLAVVEVGIGGAYDCTNIIRKPVVCGVSSLGIDHTSLLGDTVEKIAWQKGGIFKQGVPAFTVLQPEGPLAVLRDRAQQISCPLYLCPMLEALEEGGPPLTLGLEGEHQRSNAALALQLAHCWLQRQDRHGAGEPKASRPGLLWQLPLAPVFQPTSHMRLGLRNTEWPGRTQVLRRGPLTWYLDGAHTASSAQACVRWFRQALQGRERPSGGPEVRVLLFNATGDRDPAALLKLLQPCQFDYAVFCPNLTEVSSTGNADQQNFTVTLDQVLLRCLEHQQHWNHLDEEQASPDLWSAPSPEPGGSASLLLAPHPPHTCSASSLVFSCISHALQWISQGRDPIFQPPSPPKGLLTHPVAHSGASILREAAAIHVLVTGSLHLVGGVLKLLEPALSQ
Vmax [15]: 977 nM/h/mg
Vmax [16]: 1140 nM/h/mg
Vmax [17]: 1190 nM/h/mg
Vmax [18]: 696 nM/h/mg
Km [19]: 16.4 µM
Km [20]: 11.6 µM
Km [21]: 28.2 µM
Km [22]: 75.3 µM
